Reference: publication PMC11151065, “Boosted Enzyme Activity via Encapsulation within Metal–Organic Frameworks with Pores Matching Enzyme Size and Shape” (Advanced Science, 2024)

Target: T1, cytochrome c (Cyt c) (Bos taurus, UniProt P62894)
T1 construct: gene CYCS; native holoprotein from cow heart (Sigma-Aldrich), free in solution
Assay: absorbance of ABTS radical cation at […] nm
Format: biochemical
Conditions: free enzyme; peroxidase activity with H2O2 co-substrate; room temperature

T1 sequence (P62894 2-105): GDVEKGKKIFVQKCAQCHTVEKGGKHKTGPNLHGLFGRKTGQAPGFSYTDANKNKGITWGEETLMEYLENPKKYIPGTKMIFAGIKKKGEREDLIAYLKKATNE

Structure (SMILES): CCn1c(=NN=c2sc3cc(S(=O)(=O)O)ccc3n2CC)sc2cc(S(=O)(=O)O)ccc21 [ABTS, 2,2′‐azino‐bis (3‐ethylbenzothiazoline‐6‐sulfonic acid)]
- absorbance of ABTS radical cation at 415 nm: peroxidase catalytic properties of Cyt c were utilized to oxidize ABTS to ABTS▪^+
